Series [1] has as its system Saccharomyces cerevisiae. The series is described as follows: Inhibition of Sir2p in Saccharomyces cerevisiae DMY2843 assessed as minimum inhibitory concentration.
The target of series [2] is T1, NAD-dependent protein deacetylase sirtuin-2 (Homo sapiens, UniProt Q8IXJ6).
T1 sequence (Q8IXJ6 whole entry): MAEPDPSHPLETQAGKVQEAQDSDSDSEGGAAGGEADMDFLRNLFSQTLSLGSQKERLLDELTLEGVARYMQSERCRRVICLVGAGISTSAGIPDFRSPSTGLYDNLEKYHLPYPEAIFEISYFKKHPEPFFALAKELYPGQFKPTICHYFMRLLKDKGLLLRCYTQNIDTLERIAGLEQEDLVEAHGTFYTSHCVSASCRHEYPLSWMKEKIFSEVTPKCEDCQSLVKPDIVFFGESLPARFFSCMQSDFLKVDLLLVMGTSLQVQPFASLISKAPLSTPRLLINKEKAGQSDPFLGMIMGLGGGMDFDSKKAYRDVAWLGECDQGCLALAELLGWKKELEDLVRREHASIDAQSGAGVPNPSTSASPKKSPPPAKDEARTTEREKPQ
Nature of the series: Inhibition of human recombinant SIRT2 using Arg-His-Lys-Lys(epsilon-acetyl)-AMC at 37 degC for 45 mins by fluorescent screening assay.

For series [3], the target named is T2, NAD-dependent protein deacetylase sirtuin-1 (Homo sapiens, UniProt Q96EB6).
T2 sequence (Q96EB6 whole entry): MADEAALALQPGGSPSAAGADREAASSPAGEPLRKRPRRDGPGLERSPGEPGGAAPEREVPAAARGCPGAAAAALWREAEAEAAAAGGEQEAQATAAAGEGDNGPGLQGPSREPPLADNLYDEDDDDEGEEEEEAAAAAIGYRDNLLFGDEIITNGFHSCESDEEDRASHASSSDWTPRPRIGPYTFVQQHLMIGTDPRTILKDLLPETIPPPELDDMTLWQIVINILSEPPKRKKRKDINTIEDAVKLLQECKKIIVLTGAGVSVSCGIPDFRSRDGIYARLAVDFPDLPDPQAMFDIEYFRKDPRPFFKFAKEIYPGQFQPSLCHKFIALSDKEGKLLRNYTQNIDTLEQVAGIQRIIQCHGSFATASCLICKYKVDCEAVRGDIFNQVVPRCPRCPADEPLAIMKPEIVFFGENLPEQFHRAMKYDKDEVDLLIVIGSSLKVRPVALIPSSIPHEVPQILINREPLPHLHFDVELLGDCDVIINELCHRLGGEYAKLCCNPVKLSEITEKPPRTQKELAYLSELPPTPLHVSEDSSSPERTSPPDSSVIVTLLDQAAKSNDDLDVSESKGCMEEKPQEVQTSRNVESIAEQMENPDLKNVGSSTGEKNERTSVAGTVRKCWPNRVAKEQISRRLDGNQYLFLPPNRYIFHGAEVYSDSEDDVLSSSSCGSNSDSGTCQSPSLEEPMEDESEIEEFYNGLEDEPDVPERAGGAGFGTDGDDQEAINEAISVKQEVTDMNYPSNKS
The series is described as follows: Inhibition of human recombinant SIRT1 using Arg-His-Lys-Lys(epsilon-acetyl)-AMC at room temperature for 45 mins by fluorescent screening assay.

Series [4] concerns Saccharomyces cerevisiae. The series is described as follows: Cytotoxicity against Saccharomyces cerevisiae DMY2843 at 10 mM. The series is classed as organism-based. To be noted: in vivo, 10000 µM.

Values after ≈ are worked out from the molar mass of the structure shown.

For `CC(NC(=O)c1ccccc1/N=C/c1c(O)ccc2ccccc12)c1ccccc1` (stereo not given), the MIC with Saccharomyces cerevisiae [1] came to 12.5 µM (≈ 4.93 µg/mL).
Consider `CC[C@@H]1CC(=O)[C@H]2[C@@H](CC=C(C)[C@@H]2O)[C@]1(C)C(=O)C1=C(O)NCC1=O` [STREPTOSETIN A], for which the IC50 (as a rule, the concentration at which inhibition is half-maximal) was determined as 4.5 mM in series [2] and 3.7 mM in series [3]. Moreover, the MIC in the series on Saccharomyces cerevisiae [1] came out at 2500 µM (≈ 869 µg/mL). For the same compound, the Activity result in the series with Saccharomyces cerevisiae [4] is “Toxic”.

The values above are taken from ChEMBL document CHEMBL2203192, “Creation of an HDAC-based yeast screening method for evaluation of marine-derived actinomycetes: discovery of streptosetin A” (J Nat Prod, 2012).
